Patent US20010053350A1, “Cosmetic composition comprising N-ethyloxycarbonyl-4-amino-phenol and arbutin or its derivatives and/or ellagic acid or its derivatives” (L'OREAL, priority 1999, published 2001)
Values after ≈ are worked out from the molar mass of the structure shown.

Columns and labels:
fungal tyrosinase = assay: Inhibition of the activity of fungal tyrosinase in vitro (absorbance at 475 nm, L-tyrosine/L-dopa); format: biochemical; details: for molar concentration at which an inhibition figure of 25% was observed: fungal tyrosinase, phosphate buffer, solvent ethanol (C1), water (C2)
Method: This test consisted in measuring the absorbance (optical density OD) at 475 nm, as a function of time, for each of the following active depigmenting principles:
N-ethyloxycarbonyl-4-para-aminophenol arbutin in solution (at different concentrations) in an appropriate solvent in the presence of a phosphate buffer, 1 ml of L-tyrosine at 2.0×10^−3 M in a phosphate buffer, 0.1 ml of L-dopa at 1.0×10^−4 M in a phosphate buffer and 50 μl of 1 g/l fungal tyrosinase solution in a phosphate buffer, compared with a control consisting of the solvent used, at the same concentration in the phosphate buffer. Percentage inhibition was subsequently determined by the following equation: [formula]
Subsequently, N-ethyloxycarbonyl-4-para-aminophenol and arbutin were mixed in concentrations C1 and C2 and N-ethyloxycarbonyl-4-para-aminophenol and ellagic acid were mixed in respective concentrations C1 and C3.

[1] = Upper solubility limit in the test solvent (DMSO); format: physicochemical; details: organic solvent or mixture

Molecule | molar concentration at which an inhibition figure of 25% was observed (fungal tyrosinase) [µM] | inhibitory effect on tyrosinase activity (fungal tyrosinase; at concentration C3=1.35×10^−4 M (solubility limit in DMSO)) | solubility [1] [µM]
arbutin | 333 | – | –
Oc1ccc(O)cc1 [hydroquinone] | 80 | – | –
CCOC(=O)Nc1ccc(O)cc1 [N-ethyloxycarbonyl-4-para-aminophenol] | 125 | – | –
CC(C)CCC[C@@H](C)[C@H]1CC[C@H]2[C@@H]3CC=C4C[C@@H](OC(=O)Nc5ccc(O)cc5)CC[C@]4(C)[C@H]3CC[C@]12C [N-cholesteryloxycarbonyl-4-para-aminophenol] | 66.7 | – | –
O=c1oc2c(O)c(O)cc3c(=O)oc4c(O)c(O)cc1c4c23 [ellagic acid] | – | no inhibitory effect | 135 (≈ 40.8 µg/mL)
